The source of these data is US20260241021A1 (priority 2023, published 2026).

One data set has as its target cathepsin B (Homo sapiens, UniProt P07858). Briefly: Digestion and exatecan release of linker-payloads by cathepsin B cleavage (LC-UV). It counts as in vitro ADME. The conditions noted are these: 5 μg linker-payload, 10 μg/mL activated cathepsin B, 37° C., sampled for 24 hours. As to the method:
This study was conducted to evaluate how the DCBO and BCN in the linker-payloads would affect drug release. The study also included the linker-payloads with the two-amino acid spacer “GG” in the digestion comparison. The study was evaluated by digesting the linker-payloads using cathepsin B and quantifying the released exatecan by LC-UV. To perform exatecan release test by cathepsin B cleavage, 5 μg of the linker-payloads were treated with 10 μg/mL of activated cathepsin B in digestion buffer for payload cleavage at 37° C. The reaction mixture was sampled every two hours for 24 hours, and the amounts of released exatecan and residual linker-payload were analyzed by LC-UV. A C18 column (Symmetry 5 μm, 2.1×150 mm Waters) was applied for this analysis. Samples were eluted with ACN/water gradient at a flow rate of 0.5 mL/min, and the chromatogram was monitored at 263 nm.

The subject of data set [1] is SKBR-3 breast cancer cells. Briefly: Cytotoxicity of linker-payloads (CellTiter-Glo, six days). The format is cell-based, human. The conditions noted are these: SKBR-3, six days. The text has this: Human SKBR-3 breast cancer cells (ATCC, HTB-30) were used in this study. […] The IC50 data for the different linker payloads were similar.
(In general: ATP-based viability assays read luminescence as a measure of living cells.)

In a further data set the test system is NCI-N87 gastric cells. The conditions noted are these: NCI-N87, 6 days. As for the experimental part:
(§1) Tumor cells (2×10^3 cells/well) were seeded in 96 well plates and treated with ADCs for 6 days. CellTiter-Glo® Reagent (Cat. G7572, Promega) was prepared by adding CellTiter-Glo® Buffer into lyophilized CellTiter-Glo® Substrate. Reconstituted CellTiter-Glo® Reagent was added into the culture medium with cells at 1:1 ratio after treatment for 6 days. The plate was placed on an orbital shaker for 2 minutes to induce cell lysis and then incubated at room temperature for 10 minutes before recording the luminescent signals by Luminometer. The viability of each treated sample was compared to the non-treated control. The IC50 of each ADC was calculated by Prism.

In data set [2] the test system is Capan-1 pancreatic cancer cells. The conditions noted are these: Capan-1, 6 days. As for the experimental part:
as §1

The term IC50 denotes the midpoint of a concentration-inhibition curve. A low value points to inhibition by little substance. For the molecule `CC[C@@]1(O)C(=O)OCc2c1cc1n(c2=O)Cc2c-1nc1cc(F)c(C)c3c1c2[C@@H](NC(=O)OC(C(=O)NCCOCCOCCOCCOCCOCCOCCOCCOCCOCCOCCOCCOCCOCCOCCOCCOCCOCCOCCOCCOCCOCCOCCOCCOC)c1ccc(NC(=O)[C@H](C)NC(=O)[C@@H](NC(=O)CNC(=O)CNC(=O)CCC(=O)N2Cc4ccccc4C#Cc4ccccc42)C(C)C)cc1)CC3` (mixture of isomers) [DL-7, DBCO-GGVA-Hydra-PAB-PEG24-Exatecan], the “percentage of linker-payloads existed (% linker-payload) after cathepsin B cleavage reaction” value on cathepsin B was 66%. Moreover, it took 96.7 nM to reach half-maximal inhibition in data set [1] (Homo sapiens, SK-BR-3, 144 h) (IC50).

Turning to TX05-DBCO-PEG24-Exatecan ADC [ADC-4], the values for the IC50 (in the data set on NCI-N87 gastric cells; in data set [2]) were 5.51 nM and 71.8 nM, respectively.

With “BCN-GGVA-Hydra-PAB-PEG24-Exatecan [DL-8]”, at cathepsin B, the “amount of released exatecan” value is 52.6% and the “percentage of linker-payloads existed (% linker-payload) after cathepsin B cleavage reaction” value worked out at 4%. The molecule also showed an IC50 in data set [1] of 138 nM.

For `CC[C@@]1(O)C(=O)OCc2c1cc1n(c2=O)Cc2c-1nc1cc(F)c(C)c3c1c2[C@@H](NC(=O)OC(C(=O)NCCOCCOCCOCCOCCOCCOCCOCCOCCOCCOCCOCCOCCOCCOCCOCCOCCOCCOCCOCCOCCOCCOCCOCCOC)c1ccc(NC(=O)[C@H](C)NC(=O)[C@@H](NC(=O)CCC(=O)N2Cc4ccccc4C#Cc4ccccc42)C(C)C)cc1)CC3` (mixture of isomers) [DL-5, DBCO-VA-Hydra-PAB-PEG24-Exatecan], at cathepsin B, the “percentage of linker-payloads existed (% linker-payload) after cathepsin B cleavage reaction” value stood at 75%. This molecule gave an IC50 in data set [1] (Homo sapiens, SK-BR-3, 144 h) of 244 nM.

For TX05-MCCA-PEG24-Exatecan ADC [ADC-3], the values for the IC50 (in the data set with NCI-N87 gastric cells; in data set [2]) were 2.9 nM and 64.6 nM, respectively.

Take `CC[C@@]1(O)C(=O)OCc2c1cc1n(c2=O)Cc2c-1nc1cc(F)c(C)c3c1c2[C@@H](NC(=O)OC(C(=O)NCCOCCOCCOCCOCCOCCOCCOCCOCCOCCOCCOCCOCCOCCOCCOCCOCCOCCOCCOCCOCCOCCOCCOCCOC)c1ccc(NC(=O)[C@H](C)NC(=O)[C@@H](NC(=O)OC[C@@H]2[C@@H]4CCC#CCC[C@@H]42)C(C)C)cc1)CC3` (mixture of isomers) [DL-6, BCN-VA-Hydra-PAB-PEG24-Exatecan]: at cathepsin B, the “percentage of linker-payloads existed (% linker-payload) after cathepsin B cleavage reaction” value amounted to 14%. The molecule further registered an IC50 in data set [1] (Homo sapiens, SK-BR-3, 144 h) of 221 nM.
